In PubChem BioAssay AID2060889 (Molecular Pharmacology Branch, DTP, NCI, 2025):
pIC50: −log10 of the molar value.

System: LG0567-F671-PDC complex spheroids viability
Assay: Anticancer human tumor LG0567-F671-PDC patient-derived lung adenocarcinoma cell line growth inhibition [RAS]
Conditions: for pIC50: curve of first compound; for viability, T/C: stronger effect = lower value
Procedure, shortened: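 Multi-cell-type spheroids: tumor cells plus HUVEC endothelial cells and mesenchymal stem cells. RAS-pathway inhibitors were combined with targeted agents, each dosed in half-log steps down from clinical Cmax, or from 10 microM when Cmax was unknown.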

[1] = second compound 0.000949 µM, first compound 0.00316 µM
[2] = second compound 0.000949 µM, first compound 0.01 µM
[3] = second compound 0.000949 µM, first compound 0.0316 µM
[4] = second compound 0.000949 µM, first compound 0.1 µM
[5] = second compound 0.003 µM, first compound 0.00316 µM
[6] = second compound 0.003 µM, first compound 0.01 µM
[7] = second compound 0.003 µM, first compound 0.0316 µM
[8] = second compound 0.003 µM, first compound 0.1 µM
[9] = second compound 0.00949 µM, first compound 0.00316 µM
[10] = second compound 0.00949 µM, first compound 0.01 µM
[11] = second compound 0.00949 µM, first compound 0.0316 µM
[12] = second compound 0.00949 µM, first compound 0.1 µM
[13] = second compound 0.03 µM, first compound 0.00316 µM
[14] = second compound 0.03 µM, first compound 0.01 µM
[15] = second compound 0.03 µM, first compound 0.0316 µM
[16] = second compound 0.03 µM, first compound 0.1 µM
[17] = second compound 0.0949 µM, first compound 0.00316 µM
[18] = second compound 0.0949 µM, first compound 0.01 µM
[19] = second compound 0.0949 µM, first compound 0.0316 µM
[20] = second compound 0.0949 µM, first compound 0.1 µM
[21] = second compound 0.3 µM, first compound 0.00316 µM
[22] = second compound 0.3 µM, first compound 0.01 µM
[23] = second compound 0.3 µM, first compound 0.0316 µM
[24] = second compound 0.3 µM, first compound 0.1 µM
[25] = second compound 0.000949 µM, first compound 0.316 µM
[26] = second compound 0.000949 µM, first compound 1 µM
[27] = second compound 0.003 µM, first compound 0.316 µM
[28] = second compound 0.003 µM, first compound 1 µM
[29] = second compound 0.00949 µM, first compound 0.316 µM
[30] = second compound 0.00949 µM, first compound 1 µM
[31] = second compound 0.03 µM, first compound 0.316 µM
[32] = second compound 0.03 µM, first compound 1 µM
[33] = second compound 0.0949 µM, first compound 0.316 µM
[34] = second compound 0.0949 µM, first compound 1 µM
[35] = second compound 0.3 µM, first compound 0.316 µM
[36] = second compound 0.3 µM, first compound 1 µM
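Note: spheroids exposed to compound for seven days before readout.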
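Throughout, for pIC50: luminescence signal used as a proxy for viable cells.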

Molecule `CC(C)n1nc(-c2ccc3oc(N)nc3c2)c2c(N)ncnc21` + CCn1c(-c2cccnc2C(C)OC)c2c3cc(ccc31)N1CCOC(CC(NC(=O)C(C(C)C)N(C)C(=O)C3(F)CCN(C(=O)C#CC(C)(C)N(C)C)CC3)C(=O)N3CCCC(N3)C(=O)OCC(C)(C)C2)C1 has a pIC50 (second compound 0.000949 µM) greater than 9.50, a pIC50 (second compound 0.003 µM) greater than 9.50 and a pIC50 (second compound 0.00949 µM) greater than 9.50. The pIC50 (second compound 0.03 µM) was greater than 9.50, the pIC50 (second compound 0.0949 µM) was greater than 9.50 and the pIC50 (second compound 0.3 µM) was greater than 9.50. The viability, T/C (second compound 0.000949 µM, first compound 0.000316 µM) was 14.9%, the viability, T/C (second compound 0.000949 µM, first compound 0.001 µM) was 14.4% and the viability, T/C [1] was 12.2%. It also gave a viability, T/C [2] of 9.49%, a viability, T/C [3] of 8.53% and a viability, T/C [4] of 14.7%. The viability, T/C (second compound 0.003 µM, first compound 0.000316 µM) was 15.6%, the viability, T/C (second compound 0.003 µM, first compound 0.001 µM) was 12.4% and the viability, T/C [5] was 12.5%. The viability, T/C [6] was 10.2%, the viability, T/C [7] was 8.31% and the viability, T/C [8] was 13.6%. It also gave a viability, T/C (second compound 0.00949 µM, first compound 0.000316 µM) of 13.3%, a viability, T/C (second compound 0.00949 µM, first compound 0.001 µM) of 13.2% and a viability, T/C [9] of 13.3%. For the same molecule, the viability, T/C [10] was 10.2%, the viability, T/C [11] was 7.68% and the viability, T/C [12] was 12.6%. For the same molecule, the viability, T/C (second compound 0.03 µM, first compound 0.000316 µM) was 12%, the viability, T/C (second compound 0.03 µM, first compound 0.001 µM) was 14% and the viability, T/C [13] was 11%. For the same molecule, the viability, T/C [14] was 9.46%, the viability, T/C [15] was 7.2% and the viability, T/C [16] was 11.5%. For the same molecule, the viability, T/C (second compound 0.0949 µM, first compound 0.000316 µM) was 11.1%, the viability, T/C (second compound 0.0949 µM, first compound 0.001 µM) was 10.9% and the viability, T/C [17] was 9.2%. It also gave a viability, T/C [18] of 7.52%, a viability, T/C [19] of 5.8% and a viability, T/C [20] of 10.4%. For the same molecule, the viability, T/C (second compound 0.3 µM, first compound 0.000316 µM) was 9.46%, the viability, T/C (second compound 0.3 µM, first compound 0.001 µM) was 8.59% and the viability, T/C [21] was 8.57%. For the same molecule, the viability, T/C [22] was 7.61%, the viability, T/C [23] was 4.68% and the viability, T/C [24] was 8.47%.
Work on `CCN1CCN(Cc2ccc(Nc3ncc(F)c(-c4cc(F)c5nc(C)n(C(C)C)c5c4)n3)nc2)CC1` + CCn1c(-c2cccnc2C(C)OC)c2c3cc(ccc31)N1CCOC(CC(NC(=O)C(C(C)C)N(C)C(=O)C3(F)CCN(C(=O)C#CC(C)(C)N(C)C)CC3)C(=O)N3CCCC(N3)C(=O)OCC(C)(C)C2)C1 yielded a pIC50 (second compound 0.000949 µM) greater than 8.50, a pIC50 (second compound 0.003 µM) greater than 8.50 and a pIC50 (second compound 0.00949 µM) greater than 8.50. It also gave a pIC50 (second compound 0.03 µM) greater than 8.50, a pIC50 (second compound 0.0949 µM) greater than 8.50 and a pIC50 (second compound 0.3 µM) greater than 8.50. The viability, T/C [1] was 15%, the viability, T/C [2] was 15.8% and the viability, T/C [3] was 14.2%. The viability, T/C [4] was 14.7%, the viability, T/C [25] was 18.1% and the viability, T/C [26] was 17.5%. The viability, T/C [5] was 14.2%, the viability, T/C [6] was 16.5% and the viability, T/C [7] was 13%. For the same molecule, the viability, T/C [8] was 15.9%, the viability, T/C [27] was 18.7% and the viability, T/C [28] was 19.9%. The viability, T/C [9] was 15.2%, the viability, T/C [10] was 13.4% and the viability, T/C [11] was 14.1%. The viability, T/C [12] was 14.8%, the viability, T/C [29] was 16.5% and the viability, T/C [30] was 17.4%. For the same molecule, the viability, T/C [13] was 13.1%, the viability, T/C [14] was 12.9% and the viability, T/C [15] was 13.7%. The viability, T/C [16] was 13.9%, the viability, T/C [31] was 16.8% and the viability, T/C [32] was 16.5%. For the same molecule, the viability, T/C [17] was 16%, the viability, T/C [18] was 13.3% and the viability, T/C [19] was 11.8%. The viability, T/C [20] was 12.2%, the viability, T/C [33] was 15% and the viability, T/C [34] was 15.1%. It also gave a viability, T/C [21] of 10.5%, a viability, T/C [22] of 9.89% and a viability, T/C [23] of 10.4%. For the same molecule, the viability, T/C [24] was 10.7%, the viability, T/C [35] was 13.8% and the viability, T/C [36] was 11.4%.
`C[C@@H](NC(=O)c1ncnc(N)c1Cl)c1ncc(C(=O)Nc2cc(C(F)(F)F)c(Cl)cn2)s1` + CCn1c(-c2cccnc2C(C)OC)c2c3cc(ccc31)N1CCOC(CC(NC(=O)C(C(C)C)N(C)C(=O)C3(F)CCN(C(=O)C#CC(C)(C)N(C)C)CC3)C(=O)N3CCCC(N3)C(=O)OCC(C)(C)C2)C1 gave a pIC50 (second compound 0.000949 µM) greater than 7.50, a pIC50 (second compound 0.003 µM) greater than 7.50 and a pIC50 (second compound 0.00949 µM) greater than 7.50. For the same molecule, the pIC50 (second compound 0.03 µM) was greater than 7.50, the pIC50 (second compound 0.0949 µM) was greater than 7.50 and the pIC50 (second compound 0.3 µM) was greater than 7.50. For the same molecule, the viability, T/C [3] was 17.3%, the viability, T/C [4] was 19.9% and the viability, T/C [25] was 20.6%. The viability, T/C [26] was 24.5%, the viability, T/C (second compound 0.000949 µM, first compound 3.16 µM) was 23.5% and the viability, T/C (second compound 0.000949 µM, first compound 10 µM) was 23.9%. The viability, T/C [7] was 17.1%, the viability, T/C [8] was 17.9% and the viability, T/C [27] was 21.1%. The viability, T/C [28] was 21%, the viability, T/C (second compound 0.003 µM, first compound 3.16 µM) was 25.6% and the viability, T/C (second compound 0.003 µM, first compound 10 µM) was 23.6%. The viability, T/C [11] was 20.9%, the viability, T/C [12] was 18.6% and the viability, T/C [29] was 19.2%. It also gave a viability, T/C [30] of 22.4%, a viability, T/C (second compound 0.00949 µM, first compound 3.16 µM) of 22.4% and a viability, T/C (second compound 0.00949 µM, first compound 10 µM) of 24%. It also gave a viability, T/C [15] of 16.7%, a viability, T/C [16] of 17.1% and a viability, T/C [31] of 22.9%. The viability, T/C [32] was 20.3%, the viability, T/C (second compound 0.03 µM, first compound 3.16 µM) was 21.6% and the viability, T/C (second compound 0.03 µM, first compound 10 µM) was 22.2%. For the same molecule, the viability, T/C [19] was 14.4%, the viability, T/C [20] was 15.5% and the viability, T/C [33] was 17.5%. For the same molecule, the viability, T/C [34] was 19.6%, the viability, T/C (second compound 0.0949 µM, first compound 3.16 µM) was 19.8% and the viability, T/C (second compound 0.0949 µM, first compound 10 µM) was 21.8%. The viability, T/C [23] was 13%, the viability, T/C [24] was 14.8% and the viability, T/C [35] was 14.2%. It also gave a viability, T/C [36] of 17.2%, a viability, T/C (second compound 0.3 µM, first compound 3.16 µM) of 19.5% and a viability, T/C (second compound 0.3 µM, first compound 10 µM) of 19.1%.
